According to patent US5283236A, “Systemic delivery of polypeptides through the eye” (Orbon Corporation, priority 1992, dated 1994):

Tests used:
[1] = Penetration of insulin into eyeballs with absorption enhancers; assay type: in vivo, rabbits; conditions: 1% insulin plus 1% enhancer (Control: 1% insulin only)
normal rabbits [2] = assay: Blood glucose after ocular or i.v. glucagon in normal rabbits; assay type: in vivo, New Zealand white female rabbits; conditions: for blood glucose raised to: in 30 min
[3] = Insulin absorption from eye drops with absorption enhancers (blood insulin); assay type: in vivo, New Zealand white female rabbits; conditions: eye drops: 1% insulin plus 1% absorption enhancer (Control: no enhancer)
normal rabbits [4] = assay: Blood glucose after insulin eye drops with absorption enhancers; assay type: in vivo, New Zealand white female rabbits; conditions: eye drops: 1% insulin plus 1% absorption enhancer (Control: no enhancer)
[5] = Blood enkephalin-equivalent concentration after ocular or i.v. enkephalin; assay type: in vivo, New Zealand white female rabbits; conditions: enkephalin 50 ug i.v.
[6] = Enkephalin-equivalent remaining in eye tissues at the end of 12 hr experiment; assay type: in vivo, New Zealand white female rabbits
[7] = rabbit, in vivo
Description: The concentrations of peptides in the blood were expressed in ng/ml.

With `C[C@H](CCC(=O)NCC(=O)O)[C@H]1CC[C@H]2[C@@H]3[C@H](O)C[C@@H]4C[C@H](O)CC[C@]4(C)[C@H]3C[C@H](O)[C@]12C` [Glycocholate, sodium glycocholate] the “Absolute amount of insulin in the eyeball” value [1] was 200 ng.

In the case of Glucagon, the blood glucose peak (normal rabbits [2]; 50 ug glucagon i.v., peaked at 30 min) is reported as 235 mg %, the “blood glucose raised to” value (normal rabbits [2]; 25 ul of 0.2% glucagon instilled) is reported as 204 mg % and the “blood glucose came down to” value (normal rabbits [2]; 25 ul of 0.2% glucagon instilled, in 2 hrs) is reported as 116 mg %. The “blood glucose raised to” value (normal rabbits [2]; 25 ul of 1% glucagon instilled) was 248 mg % and the “blood glucose declined to” value (normal rabbits [2]; 25 ul of 5% glucagon instilled, end of 6 hr) was 160 mg %.

In the case of `C[N+](C)(C)CCCCCCCCCC[N+](C)(C)C` [Decamethonium, decamethonium bromide], the “Insulin peak Concentration” value [3] is reported as 10.8 ± 1.8 ng/mL, the “% Change in Blood Glucose Concentration” value (normal rabbits [4]) is reported as 8% and the “Blood Glucose Concentration Before” value (normal rabbits [4]) is reported as 90 ± 3 mg %.

In the case of polyoxyethylene-9-lauryl ether [BL-9], the “% Change in Blood Glucose Concentration” value (normal rabbits [4]) is reported as 42%, the “Blood Glucose Concentration After” value (normal rabbits [4]) is reported as 56 mg % and the “Blood Glucose Concentration Before” value (normal rabbits [4]) is reported as 97 mg %.

For `CC(C)C[C@H](NC(=O)[C@H](Cc1ccccc1)NC(=O)CNC(=O)CNC(=O)[C@@H](N)Cc1ccc(O)cc1)C(=O)O` [enkephalin, Leucine-enkephalin (5-L-leucine)], the “Tx of decline of blood concentration” value [5] was “less than 30 min”, the lowest blood concentration ([5]; in 5 hrs) was 22 ng/mL and the “Residual amount of enkephalin remaining in tissues, % of instilled, Total” value ([6]; 1% enkephalin) was 0.1713%. For the same compound, the “Residual amount of enkephalin remaining in tissues, Amount, Total” value ([6]; 1% enkephalin) was 428.28 ng, the “Residual amount of enkephalin remaining in tissues, % of instilled, Total” value ([6]; 5% enkephalin) was 0.1136% and the “Residual amount of enkephalin remaining in tissues, % of instilled, Total” value ([6]; […] enkephalin) was 0.3019%.

In the case of `NC(=O)[C@@H]1CCCN1C(=O)[C@H](Cc1cnc[nH]1)NC(=O)[C@@H]1CCC(=O)N1` [TRH, Thyrotrophin-releasing hormone], the “TRH eye drop concentration giving a therapeutic blood concentration” value [7] is reported as ≥ 0.0025% and the “Tx of blood TRH” value ([7]; iv) is reported as “approximately 10 min”.

With `CC(C)C[C@H](NC(=O)CNC(=O)[C@H](Cc1ccc(O)cc1)NC(=O)[C@H](CO)NC(=O)[C@H](Cc1c[nH]c2ccccc12)NC(=O)[C@H](Cc1cnc[nH]1)NC(=O)[C@@H]1CCC(=O)N1)C(=O)N[C@@H](CCCNC(=N)N)C(=O)N1CCC[C@H]1C(=O)NCC(N)=O` [LHRH, luteinizing hormone-releasing hormone] the “LHRH eye drop concentration sufficient to reach therapeutic effective blood concentration” value [7] was ≥ 0.005% and the “Tx of blood LHRH” value ([7]; iv) was “approximately 15 min”.
